The results in this text go back to patent US12195424B2, “Antibiotic compounds” (The General Hospital Corporation, priority 2017, dated 2025).

SMILES strings stand for the structures. Like-named read-outs stand apart in the source and are kept apart here.

One data set concerns human erythrocytes. Kind of data set: Human blood hemolysis. The format is cell-based. How it is done: Human blood hemolysis. Hemolytic activity of retinoids on human erythrocytes was evaluated using a previously described method with modifications. 10% human erythrocytes were purchased from Rockland Immunochemicals (Limerick, PA, USA). The erythrocytes were diluted to 4% with PBS, and 100 μl was added to 100 μl of two-fold serial dilutions of compounds in PBS, 0.2% DMSO (negative control), or 2% Triton-X 100 (positive control) in a 96-well plate. The plate was incubated at 37° C. for 1 h and then centrifuged at 500×g for 5 min. 100 μl of the supernatant was transferred to a fresh 96-well plate and absorbance of supernatants was measured at 540 nm. Percent hemolysis was calculated using the following equation: (A540 nm of compound treated sample−A540 nm of 0.1% DMSO treated sample)/(A540 nm of 1% Triton X-100 treated sample−A540 nm of 0.1% DMSO treated sample)×100. HC50 (concentration of compound causing 50% hemolysis) was determined using SigmaPlot 10.0 (Systat Software Inc., San Jose, CA, USA).

The next data set can be described thus: Pharmacokinetic analysis. Type of data set: in vivo, mice. The settings on record: for half-life: 20 mg/kg. How it is done: Pharmacokinetic analysis. Pharmacokinetic experiments were conducted by SAI Life Sciences Ltd. (Pune, India) in accordance with guidelines provided by the Committee for the Purpose of Control and Supervision of Experiments on Animals (CPCSEA). The Institutional Animal Ethics Committee (IAEC) approved the experimental protocol. In brief, healthy female CD1 mice (6 weeks old) weighing between 20 to 25 g were procured from Hylasco (Hyderabad, India). Analog 2 was dissolved in a 1:1 solution of Kolliphor EL (Sigma-Aldrich, St Louis, MO, USA) and ethanol and then diluted 1:10 in saline to a final concentration of 2 mg/ml. Groups of mice (n=3) were treated with 20 mg/kg Analog 2 (i.p.). Blood samples were collected as terminal a bleed under light isoflurane anesthesia through a cardiac puncture such that samples were obtained at pre-dose, 0.08, 0.25, 0.5, 1, 2, 4, 8 & 24 h. Immediately after collection, plasma was harvested by centrifugation and stored at −70° C. until analysis. All samples were processed for analysis by protein precipitation using acetonitrile and analyzed with fit-for-purpose LC/MS/MS method (LLOQ=4.90 ng/mL for plasma). Pharmacokinetic parameters were calculated using the non-compartmental analysis tool of Phoenix WinNonlin (Version 6.3). No statistical methods were used to predetermine samples size. The experiments were not randomized, and investigators were not blinded to allocation during experiments and outcome assessment. Outliers were determined based on Grubb's test using GraphPad Prism 7 (GraphPad Software, La Jolla, CA, USA).

A short description of data set [1]: Cytotoxicity (WST-1) in HepG2 cells. The format is cell-based, human. The settings on record: human; HepG2 cells, serum-free media, 24 h; read-out: LC50. The source says:
(§1) Human hepatoma, HepG2 (ATCC HB-8065) cells were maintained in DMEM containing 10% fetal bovine serum and antibiotics penicillin—streptomycin (100 units/ml). Normal human primary renal proximal tubular epithelial cells (RPTEC, Lonza catalog #CC-2553, Walkersville, MD, USA) and adult normal human epidermal keratinocytes (NHEK, Lonza catalog #192627) were maintained in renal cell growth media with growth supplements (REGM, Lonza catalog #CC-3190) and in keratinocyte growth media 2 with growth supplements (KGM-2, Lonza catalog #CC-3107), respectively in a humidified 5% CO2 incubator at 37° C.
(§2) For cytotoxicity tests, HepG2, RPTEC, and NHEK were cultured at 70-80% confluence in tissue culture treated 96-well plates in a volume of 100 μl/well corresponding culture media. To test cytotoxicity in the absence of serum, all cells were washed twice with PBS and then once with the serum-free corresponding culture media. The cells were then treated with a range of concentrations of retinoids in the serum-free culture media for 24 h. For the last 4 h of the 24 h period, 50 μl and 10 μl of WST-1 (Roche, Mannheim, Germany) were added in each well of the 24-well and the 96-well plates, respectively. WST-1 reduction was measured at 450 nm. The percent fluorescence relative to that of the no-treatment control was calculated. The assay was done in triplicate.
Background: Tetrazolium dyes change colour on reduction, which living cells bring about.

Data set [2] deals with human hepatoma HepG2 cells. Kind of data set: Cytotoxicity (WST-1) in HepG2 cells. The format is cell-based. The settings on record: compared with CD437, in words.
From the text: as §1, §2

Data set [3] has as its system Cutibacterium (Propionibacterium) acnes. Kind of data set: Morphology of treated P. acnes bacteria. The settings on record: in words (FIG. 13). The format is cell-based.
Data set [4] can be described thus: Cytotoxicity (WST-1) in a panel of human cell lines. Type of data set: cell-based. The settings on record: panel of human cell lines, serum-free media, 24 h; read-out: LC50. On the procedure:
(§3) Cytotoxicity. Cryopreserved rat and human primary hepatocytes were purchased from the Cell Resource Core at Massachusetts General Hospital (Boston, MA, USA). The hepatocytes were cultured in a collagen sandwiched configuration in 24-well plates, as described previously. Briefly, 4×10^5 live cells were seeded in 24-well plates coated with rat tail collagen type I. Plates were incubated in a humidified 5% CO2 incubator at 37° C. for 4 h to allow cells to attach to the collagen gel. […] The cell cultures were incubated in a humidified 5% CO2 incubator at 37° C.
(§4) For cytotoxicity tests, HepG2, RPTEC, and NHEK were cultured at 70-80% confluence in tissue culture treated 96-well plates in a volume of 100 μl/well corresponding culture media. To test cytotoxicity in the absence of serum, all cells were washed twice with PBS and then once with the serum-free corresponding culture media. […] WST-1 reduction was measured at 450 nm. The percent fluorescence relative to that of the no-treatment control was calculated. The assay was done in triplicate.

Data set [5] concerns panel of human cell lines. The description is as above. Type of data set: cell-based. The settings on record: compared with CD437, in words. On the procedure: as §3, §4
In data set [6] the test system is Cutibacterium (Propionibacterium) acnes. Kind of data set: Growth inhibition / MIC against P. acnes. The format is cell-based. The settings on record: in words (FIG. 11). On the procedure:
Minimal inhibitory concentration (MIC) assay. The MICs of antibiotics were determined by the standard micro-dilution method recommended by the Clinical and Laboratory Standards Institute. The assay was conducted in triplicate.
More specifically, uptake of SYTOX Green by Cutibacterium (Propionibacterium) acnes cells treated with retinoids CD437 and Analog 2 increased, indicating higher permeability (FIG. 12; individual data points (n=3 biologically independent samples) and means are shown).

One may read the HC50 as the concentration that lyses half of the red blood cells. For the molecule `OCc1ccc2cc(-c3ccc(O)c(C45CC6CC(CC(C6)C4)C5)c3)ccc2c1` [Analog 2, 2-(adamantan-1-yl)-4-(6-(hydroxymethyl)naphthalen-2-yl)phenol], in the data set on human erythrocytes (compared with CD437, in words), the hemolytic activity result was “significantly reduced”. In the data set with human erythrocytes (human erythrocytes, 1 h), this molecule had a 50% haemolytic concentration (HC50) of more than 32 µg/mL. Also, the AUC(0-inf) in the data set “Pharmacokinetic analysis” (female, CD1, mouse, ip, mice, single injection 20 mg/kg i.p., plasma, read-out: AUCinf (area under the curve to infinite)) worked out at 16500 ng·h/mL. For the same molecule, in “Pharmacokinetic analysis” (female, CD1, mouse, ip, mice, single injection 20 mg/kg i.p., plasma, read-out: AUClast (area under the curve to last time point)), the AUC(0-t) came to 16400 ng·h/mL. For the same molecule, in the data set “Pharmacokinetic analysis” (female, CD1, mouse, ip, mice, single injection 20 mg/kg i.p., plasma, read-out: Cmax (maximum concentration observed)), the Cmax stood at 16100 ng/mL. The Tmax in “Pharmacokinetic analysis” (female, CD1, mouse, ip, mice, single injection 20 mg/kg i.p., plasma, read-out: Tmax (the time taken to reach the maximum concentration)) was found to be 0.5 h. For the same molecule, the half-life in “Pharmacokinetic analysis” (female, CD1, mouse, plasma, ip, intraperitoneal single dose of 20 mg/kg, as stated in Example 3, read-out: elimination half-life (converted)) was 4.5 h; in the data set “Pharmacokinetic analysis” (female, CD1, mouse, plasma, ip, mice, single injection 20 mg/kg i.p., plasma, read-out: T1/2 (Half-life) (converted)) it was 4.49 h. The molecule further returned a maximum plasma concentration in “Pharmacokinetic analysis” (intraperitoneal single dose of 20 mg/kg, as stated in Example 3) of approximately 10 µg/mL. The “CL (clearance)” value in the data set “Pharmacokinetic analysis” (mice, single injection 20 mg/kg i.p., plasma) was determined as 20.16 mL/min/kg. Also, the CC50 at 24 h in data set [1] was more than 32 µg/mL; in data set [4], not below 31 µg/mL. Besides, in data set [2], the anticancer activity result is on record as “significantly reduced”. The morphology of bacteria result in data set [3] was “altered and elongated”. For the same molecule, the cytotoxicity result in data set [5] was “significantly reduced”. In addition, in data set [6], the growth inhibition entry is reported as “inhibit the growth”.
